The values below come from BindingDB's records for doi:10.1016/S0960-894X(97)00368-5 (1997).

SMILES strings stand for the structures.

This test addresses Human cytomegalovirus protease (assemblin). In words: Inhibitory concentration against human cytomegalovirus protease variant expressing a beta galactosidase reporter gene.
The molecule `Cc1cccc2nc(N[C@H](C)c3ccc(Br)cc3)oc(=O)c12` [2-[1-(4-Bromo-phenyl)-ethylamino]-5-methyl-benzo[d][1,3]oxazin-4-one] returned an IC50 of 460 nM.

As to `Cc1c(NC(=O)c2ccccn2)ccc2nc(N[C@H](C)c3ccccc3)oc(=O)c12` [Pyridine-2-carboxylic acid [5-methyl-4-oxo-2-(1-phenyl-ethylamino)-4H-benzo[d][1,3]oxazin-6-yl]-amide], the IC50 is 720 nM.

In turn, `Cc1c(NC(=O)OC(C)(C)C)ccc2nc(N[C@H](C)c3ccccc3)oc(=O)c12` [[5-Methyl-4-oxo-2-(1-phenyl-ethylamino)-4H-benzo[d][1,3]oxazin-6-yl]-carbamic acid tert-butyl ester] gave an IC50 of 1300 nM.

Turning to `Cc1c(NC(=O)CN(C)C)ccc2nc(N[C@H](C)c3ccccc3)oc(=O)c12` [2-Dimethylamino-N-[5-methyl-4-oxo-2-(1-phenyl-ethylamino)-4H-benzo[d][1,3]oxazin-6-yl]-acetamide], half-maximal inhibition (IC50) required 2200 nM.

For `Cc1cccc2nc(NC(C)C)oc(=O)c12` [2-Isopropylamino-5-methyl-benzo[d][1,3]oxazin-4-one], the IC50 worked out at 4000 nM.
